# Patent US20140066385A1, “METHOD FOR TREATING CANCER BY COMBINED USE OF DRUGS” (Astellas Pharma Inc., priority 2011, published 2014)
# Assays:
# [1] = system: Human lung cancer-derived Calu 6 (HTB-56); experiment: Example 1: anti-tumor effect of FK330 alone or combined with chemotherapeutic agents in Calu-6 tumor-bearing nude mice; assay type: in vivo
# Excerpt: A free-form dihydrate of FK330 was used. Hereinafter, the amount of FK330 administered is expressed in weight of the dihydrate. A docetaxel hydrate injectable preparation (Taxotere (trademark), for intravenous infusion) was purchased from Sanofi-Aventis SA, and was used as docetaxel. A paclitaxel injectable preparation (paclitaxel injection liquid “Sawai”) was purchased from Sawai Pharmaceutical Co., Ltd., and was used as paclitaxel. Irinotecan hydrochloride (Topotesin (trade name) injection) was purchased from Daiichi Sankyo Co., Ltd., and was used as irinotecan. Gemcitabine hydrochloride for injection (Gemzar (trade name) injection) was purchased from Eli Lilly Japan K.K., and was used as gemcitabine. Doxorubicin hydrochloride for injection (Adriacin (trade name) Injection 10) was purchased from Kyowa Hakko Kogyo Co., Ltd., and was used as doxorubicin. A carboplatin injection liquid (Paraplatin (trade name) injection liquid) was purchased from Bristol Myers Squibb Co., and was used as carboplatin.
# FK330 was suspended (20 mg/mL) in a 0.5% aqueous methyl cellulose solution (0.5% MC). Docetaxel was prepared in the attached dissolution liquid at 4 mg/mL, and was diluted with physiological saline (Otsuka Pharmaceutical Group) to 1 mg/mL. Paclitaxel, irinotecan, gemcitabine, doxorubicin, and carboplatin were prepared with physiological saline for injection at the time of use at concentrations of 1 mg/mL, 3 mg/mL, 16 mg/mL, 1 mg/mL, and 6 mg/mL, respectively.
# Human lung cancer-derived Calu 6 (HTB-56) was obtained from American Type Culture Collection (VA, USA). The cells were cultured under the conditions of 37° C. and 5% CO2 by using RPMI1640 medium containing 10% heat-inactivated fetal bovine serum (FBS). The cells were harvested with trypsin and were suspended in PBS at 6×10^7 cells/mL, and the suspension was mixed with an equal amount of Matrigel (trade name) Basement Membrane Matrix (manufactured by Becton Dickinson Co., Bedford, Mass., USA).
# Five-week old male nude mice (CAnN Cg-Foxn1nu/CrlCrlj(nu/nu)) were purchased from Charles River Laboratories Japan, Inc. (Japan, Kanagawa). The animals were raised under specific pathogen-free (SPF) conditions throughout the test period by feeding standard feedstuff and drinking water. The cultured cells were subcutaneously inoculated into the dorsal region of the nude mice at a concentration of 3×10^6 cells/0.1 mL/mouse. Nude mice which had the tumor volumes (major axis×[minor axis]^2×0.52) ranging from 111.9 mm^3 to 369.3 mm^3 were assigned by using SAS to minimize the fluctuation in tumor volume between the groups and within the group.
# The first day of administration was designated as Day 1, and observation was made until Day 29. The respective groups (n=5 or 6) were treated as follows. FK330 was orally gavaged (5 mL/kg) twice a day at an interval of 6 to 8 hours, and each of the chemotherapeutic agents was administered by intravenous bolus injection (10 mL/kg) through the tail vein.
# FK330 single administration group: 100 mg/kg of FK330 was administered twice a day (bid) (200 mg/kg/day, administered every day from the initiation of experiment to the completion)
# Docetaxel single administration group: Docetaxel 10 mg/kg/day (Day 1, 5 and 9)
# Paclitaxel single administration group: Paclitaxel 10 mg/kg/day (Day 1 through 7)
# Irinotecan single administration group: lrinotecan 30 mg/kg/day (Day 1 through 7)
# Gemcitabine single administration group: Gemcitabine 160 mg/kg/day (Day 1, 4 and 7)
# Doxorubicin single administration group: Doxorubicin 10 mg/kg/day (Day 1 and 8)
# Carboplatin single administration group: Carboplatin 60 mg/kg/day (Day 1 and 2)
# FK330 100 mg/kg bid+Docetaxel 10 mg/kg/day (Day 1, 5 and 9), n=6
# FK330 100 mg/kg bid+Paclitaxel 10 mg/kg/day (Day 1 through 7), n=6
# FK330 100 mg/kg bid+Irinotecan 30 mg/kg/day (Day 1 through 7), n=6
# FK330 100 mg/kg bid+Gemcitabine 160 mg/kg/day (Day 1, 4 and 7), n=6
# FK330 100 mg/kg bid+Doxorubicin 10 mg/kg/day (Day 1 and 8), n=6 […]
# [2] = system: chronic rejection, rat aorta transplantation; settings: reported in Non-Patent Document 2; cited from earlier work
# [3] = system: renal ischemia/reperfusion injury; settings: reported in Non-Patent Documents 3 and 4; cited from earlier work
smiles,measurement,setting,value
"O=C(/C=C/c1ccc(Cl)cc1)N[C@@H](Cc1ccccn1)C(=O)NCC(=O)N1CCC(Oc2cc(C(F)(F)F)ncn2)CC1 [FK330, N^2-[(2E)-3-(4-chlorophenyl)-2-propenoyl]-N-[2-oxo-2-(4-{[6-(trifluoromethyl)pyrimidin-4-yl]oxy}piperidin-1-yl)ethyl]-3-pyridin-2-yl-L-alaninamide]",tumor volume reduction ratio compared with docetaxel-only group,"[1]; Day 29, FK330 100 mg/kg bid p.o. + docetaxel 10 mg/kg/day i.v. (Day 1, 5 and 9), significant",63.5%
same,tumor volume reduction ratio compared with doxorubicin-only group,"[1]; Day 29, FK330 100 mg/kg bid p.o. + doxorubicin 10 mg/kg/day i.v. (Day 1 and 8), not significant",33.5%
same,tumor volume reduction ratio compared with irinotecan-only group,"[1]; Day 29, FK330 100 mg/kg bid p.o. + irinotecan 30 mg/kg/day i.v. (Day 1 through 7), not significant",30.8%
same,tumor volume reduction ratio compared with paclitaxel-only group,"[1]; Day 29, FK330 100 mg/kg bid p.o. + paclitaxel 10 mg/kg/day i.v. (Day 1 through 7), significant",57.6%
same,effect of FK330 on the anti-tumor effect of carboplatin,[1]; FK330 100 mg/kg bid p.o. + carboplatin 60 mg/kg/day i.v. (Day 1 and 2),did not affect
same,effect of FK330 on the anti-tumor effect of gemcitabine,"[1]; FK330 100 mg/kg bid p.o. + gemcitabine 160 mg/kg/day i.v. (Day 1, 4 and 7)",did not affect
same,anti-tumor effect when FK330 was used alone,"[1]; FK330 100 mg/kg bid p.o. alone, every day, observation until Day 29",not recognized
same,efficacy in chronic rejection model for rat aorta transplantation,[2],effective
same,efficacy for monkey renal ischemia/reperfusion injury,[3],effective
